How the values were obtained:
[1] = Optical properties in methanol; type: physicochemical
Description: The optical properties (in methanol) of compounds 2 to 4 synthesized were determined (Table 1). The compounds 2 to 4 each have maximum absorption at a wavelength at or near 500 nm and emit fluorescence at 509 nm. It was observed that introduction of a perfluoroalkyl group caused some decreases in light absorption coefficients, but little change in their fluorescence quantum yield.

[2] = Absorption spectrum measurement (Test Example 3); type: physicochemical; conditions: for shift of maximum absorption wavelength to the long-wavelength side: 8 vs compound 9, 11 vs F on boron, 12 with R^6 iodine; for Absorbance λmax: Table 2
Description: Each absorption spectrum was measured (Table 2). The maximum absorption wavelength of compound 8, in which the dimethylamino phenyl group of compound 9 was changed to a julolidine group, was shifted to the long-wavelength side by 30 nm than that of compound 9. […] The maximum absorption wavelength of compound 12, in which R^6 was iodine, was shifted to the long-wavelength side by 20 nm. This allowed the compound to be efficiently excited by light with a longer wavelength of over 650 nm. In the cases of the carboxyl group- or sulfonic acid group-substituted tetrahydroquinoline derivatives (compounds 13 to 16) so as to introduce a water-soluble substituent, the absorption wavelength was shifted to the short-wavelength side by about 10 nm than that of the julolidine-substituted derivative. It can be deduced from the above results that as the lone electron pair of the nitrogen atom is arranged more stably on the same plane as that of the benzene ring due to the condensed ring structure of the julolidine or tetrahydroquinoline, the absorption wavelength tends to be shifted more to the long-wavelength side.

Aβ1-42 [3] = target: T1, Aβ1-42 (Homo sapiens, UniProt P05067); assay: In vitro Aβ1-42 oxygenation in phosphate buffer under 595 nm light, MALDI-TOF MS; type: biochemical; conditions: for Aβ1-42 oxygenation activity / rate of oxygenation of Aβ1-42: phosphate buffer pH 7.4, 37° C., light at 595 nm, FIG. 5
T1 sequence (P05067 672-713 limits assumed): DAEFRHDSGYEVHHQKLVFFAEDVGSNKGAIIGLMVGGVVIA
Description: (1) To check whether or not the compounds synthesized actually had Aβ oxygenation activity, in vitro oxygenation experiments were carried out using Aβ1-42 as a substrate. Compound 12 (20 μM) was added to a phosphate buffer solution (pH 7.4) containing Aβ1-42 (20 μM), and the mixture was incubated at 37° C. under LED light irradiation (at a wavelength of 595 nm). Then, a mass spectrometer (MALDI-TOF MS) was used to follow the reaction. Before the light irradiation, native Aβ1-42 and Na^+ adducts were primarily observed. […] (2) The Aβ1-42 oxygenation activities of compounds 8, 11, and 12 were compared (FIG. 5). First, 0.1% TFA aqueous solution containing o-acyliso-Aβ1-42 was diluted with a phosphate buffer solution (PB) (10 mM, pH 7.4) to prepare a native Aβ1-42 solution. To the resulting solution was added a DMSO catalyst stock solution (1.0 M). While incubated at 37° C., the mixture was irradiated with light at 595 nm. […] The heavy metal effect seems to enhance the efficiency of generating singlet oxygen.

Aβ1-42 [4] = target: T1, Aβ1-42; assay: Aβ peptide selectivity test: oxygenation of Aβ1-42; type: biochemical; conditions: 20 μM, pH 7.4, pre-incubated 3 hours, 37° C., 30 min, LED 595 nm, FIG. 9
Description: (§1) Compound 14 was used to investigate whether or not a compound of the present invention was able to selectively oxygenate Aβ. First, compound 14 (20 μM) was added to phosphate buffer solutions (pH 7.4) each containing Aβ1-42 (20 μM), angiotensin IV (20 μM) or a methionine enkephalin (20 μM), which solutions had been pre-incubated for 3 hours. The mixtures were incubated at 37° C. for 30 min under LED light irradiation (at a wavelength of 595 nm). Then, a mass spectrometer (MALDI-TOF MS) was used to follow the reaction. Three model peptides having a residue capable of being oxygenated were selected, including angiotensin IV (AT-4), met-enkephalin (ME), and somatostatin (Sat). These three peptides were subjected to the same oxygenation conditions as for Aβ1-42 (FIG. 9).

[5] = tested on: angiotensin IV (AT-4), met-enkephalin (ME), and somatostatin (Sat); assay: Aβ peptide selectivity test: oxygenation of non-amyloid model peptides; type: biochemical; conditions: same oxygenation conditions as for Aβ1-42, FIG. 9
Description: as §1

[6] = Photostability under light irradiation (500 nm, methanol); type: physicochemical; conditions: methanol solution, light of 500 nm, 37° C., FIG. 2
Description: Next, a methanol solution containing each of compounds 2 to 4 was irradiated with light of 500 nm, and incubated at 37° C. Then, a change in the time course of the absorbance at the maximum light absorption wavelength was measured to compare their photostability (FIG. 2). […] By contrast, compounds 3 and 4, having a perfluoroalkyl group, took 2 hours or longer until complete photofading. […] Reaction with singlet oxygen seems to be primarily responsible for the photofading under visible light irradiation. So, the photostability of the present compounds was considered from the viewpoint of the reactivity with singlet oxygen. First, the HOMO/LUMO levels of compounds 2 to 4 were calculated in accordance with a DFT algorithm (FIG. 3). […] As the HOMO level increases, the compounds are more susceptible to oxygenation by singlet oxygen. Thus, this calculation results agree with the results of the photostability test. […] This reflects the fact that the maximum absorption wavelength is unchanged.

| Compound | Absorbance λmax [1] [nm] | Emission λmax [1] [nm] | Φfl (fluorescence quantum yield) [1] | ϵ (light absorption coefficient) [1] [M⁻¹ cm⁻¹] | shift of maximum absorption wavelength to the long-wavelength side [2] | Absorbance λmax [2] [nm] | Aβ1-42 oxygenation activity (Aβ1-42 [3]) | other results |
| --- | --- | --- | --- | --- | --- | --- | --- | --- |
| CC1=CC(C)=[N+]2C1=Cc1c(C)cc(C)n1[B-]2(F)C(F)(F)F (stereo not drawn) [Compound 3] | 502 | 509 | 0.80 | 74000 | – | – | – | – |
| CC1=CC(C)=[N+]2C1=Cc1c(C)cc(C)n1[B-]2(F)C(F)(F)C(F)(F)F (stereo not drawn) [Compound 4] | 503 | 509 | 0.79 | 72600 | – | – | – | – |
| CC1=CC(C)=[N+]2C1=Cc1c(C)cc(/C=C/c3cc4c5c(c3)CCCN5CCC4)n1[B-]2(F)C(F)(F)F (stereo not drawn) [Compound 11] | – | – | – | – | almost no observable change | 640 | helped oxygenate Aβ1-42 under the light irradiation | rate of oxygenation of Aβ1-42 (Aβ1-42 [3]): faster oxygenation rate than the compounds 8 |
| CC1=CC(C)=[N+]2C1=Cc1c(C)cc(/C=C/c3cc4c5c(c3)CCCN5CCC4)n1[B-]2(F)F [Compound 8] | – | – | – | – | 30 nm | 639 | helped oxygenate Aβ1-42 under the light irradiation | – |
| Cc1cc2nc3c(=O)[nH]c(=O)nc-3n(C[C@H](O)[C@H](O)[C@H](O)CO)c2cc1C [riboflavin] | – | – | – | – | – | – | – | oxygenation activity toward Aβ1-42 (Aβ1-42 [4]): a certain oxygenation activity on all the peptides; oxygenation of the other (non-amyloid) peptides [5]: a certain oxygenation activity on all the peptides |
| CC1=CC(C)=[N+]2C1=Cc1c(C)cc(C)n1[B-]2(F)F [Compound 2, reference compound] | 502 | 509 | 0.80 | 81400 | – | – | – | time to substantial photofading [6]: about 30 min |
| CC1=C(I)C(C)=[N+]2C1=Cc1c(C)cc(/C=C/c3cc4c5c(c3)CCCN5CCC4)n1[B-]2(F)C(F)(F)F (stereo not drawn) [Compound 12] | – | – | – | – | 20 nm | 660 | helped oxygenate Aβ1-42 under the light irradiation | Aβ1-42 oxygenation (oxygen adducts by MALDI-TOF MS) (Aβ1-42 [3]; compound 20 μM, Aβ1-42 20 μM, pH 7.4, 37° C., LED 595 nm, FIG. 4): there appeared ion peaks indicating the presence of oxygen adducts in a time-dependent manner; rate of oxygenation of Aβ1-42 (Aβ1-42 [3]): significantly faster |

— patent publication US10188671B2, “Boron-dipyrrin complex and medicament containing the same” (JAPAN SCIENCE AND TECHNOLOGY AGENCY, priority 2015, dated 2019)
